Results reported in paper PMC7824787, “Design, Synthesis and In Vitro Investigation of Novel Basic Celastrol Carboxamides as Bio-Inspired Leishmanicidal Agents Endowed with Inhibitory Activity against Leishmania Hsp90” (Biomolecules, 2021).

Tests used:
[1] = tested on: L. infantum promastigotes; assay: Antileishmanial activity on L. infantum promastigotes (MTT); assay type: cell-based; conditions: Leishmania infantum, 72 h, 23 °C, MTT, read-out: Leishmania Promastigotes IC50, L. infantum
Protocol: (§1) Promastigote stage of L. infantum (MHOM/TN/80/IPT1, kindly provided by Dr. M. Gramiccia and Dr. T. Di Muccio, ISS, Roma) and L. tropica (MHOM/SY/2012/ISS3130) were cultured in RPMI 1640 medium (EuroClone) supplemented with 15% heat-inactivated fetal calf serum (EuroClone, Milan, Italy), 20 mM HEPES, and 2 mM L-glutamine at 23 °C. The MTT (3-[4.5-dimethylthiazol-2-yl]-2.5-diphenyltetrazolium bromide) method was used to estimate the 50% inhibitory concentration (IC50), with some modifications. Compounds were dissolved in DMSO and then diluted with medium to achieve the required concentrations. Test compounds were placed in 96 wells round bottom microplates and seven serial dilutions made. Amphotericin B was used as the reference antileishmanial drug. Parasites were diluted in complete medium to 5 × 10^6 parasites/mL and 100 μL of the suspension was seeded into the plates and incubated at 23 °C for 72 h. Then 20 μL of MTT solution (5 mg/mL) was added into each well, after 3 h the plates were centrifuged, the supernatants discarded and the resulting pellets dissolved in 100 μL of lysing buffer consisting of 20% (w/v) of a solution of SDS (Sigma), 40% of N,N-dimethylformamide (Merck) in H2O. The absorbance of the obtained solutions was measured at a wavelength of 550 nm with a reference at 650 nm with a microplate spectrophotometer (Synergy 4-Biotek, Milan, Italy) and analyzed with the Gen5® software for data processing.
(§2) The results are expressed as IC50, the dose of compound that is necessary to inhibit cell growth by 50%; each IC50 value is the mean ± standard deviation of at least three separate experiments performed in duplicate.

[2] = tested on: BMDM; assay: Cytotoxicity on BMDM (MTT); assay type: cell-based, mouse; conditions: Mus musculus, BMDM; 72 h, MTT; read-out: Healthy Cell Lines IC50, BMDM
Protocol: (§3) Cytotoxicity was evaluated on human microvascular endothelial cells (HMEC-1, provided by the Centers for Disease Control, Atlanta, GA, USA), on immortalized mouse C57Bl/6 bone marrow derived macrophages (BMDM) from wild type lineage (generated in the laboratories of Drs. Douglas Golenbock and Kate Fitzgerald, University of Massachusetts, Worcester, MA, USA) and on a human acute monocytic leukaemia cell line (THP-1).
(§4) HMEC-1 were maintained in MCDB 131 medium (Invitrogen, Milan, Italy) supplemented with 10% fetal calf serum (HyClone), 10 ng/mL of epidermal growth factor, 1 μg/mL of hydrocortisone, 2 mM glutamine and 20 mM HEPES buffer, at 37 °C in 5% CO2. BMDM were maintained in DMEM (Euroclone) medium supplemented with 10% fetal bovine serum (HyClone, Celbio, Milan, Italy), 2 mM glutamine, and 25 mM of HEPES buffer solution (Euroclone). THP-1 were maintained in RPMI supplemented with 10% heat-inactivated FCS, 50 µM 2-mercaptoethanol, 10 µM sodium pyruvate, 20 mM HEPES, and 2 mM glutamine. In order to achieve differentiation into macrophages, cells were treated with 10 ng/mL phorbol myristate acetate (PMA) for 72 h.
(§5) For the cytotoxicity assay, cells were seeded in 96 well flat bottom tissue culture clusters (Costar, New York, NY, USA) at the following concentrations: HMEC 10^5 cell/mL, BMDM at 10^6 cell/mL, THP1 at 5 × 10^5 cell/mL. After 24 h, cells were treated with serial dilutions of test compounds in a final volume of 200 µL/well. Cell proliferation was evaluated after 72 h using the MTT assay.
(§6) The absorbances were measured with a microplate spectrophotometer (Synergy 4-Biotek) at a test wavelength of 550 nm and a reference wavelength of 650 nm. The results are expressed as IC50 as the concentration inhibiting 50% of cell growth. Each IC50 value is the mean and standard deviation of at least three separate experiments performed in duplicate.

[3] = target: LbHsp90 (Leishmania braziliensis, UniProt A4HL70); assay: In vitro inhibition of the ATPase activity of LbHsp90 (Malachite Green Phosphate Assay); assay type: biochemical; conditions: 7 μM LbHsp90, 27 °C, 60 min
Chain of LbHsp90 (A4HL70 entry or part of it): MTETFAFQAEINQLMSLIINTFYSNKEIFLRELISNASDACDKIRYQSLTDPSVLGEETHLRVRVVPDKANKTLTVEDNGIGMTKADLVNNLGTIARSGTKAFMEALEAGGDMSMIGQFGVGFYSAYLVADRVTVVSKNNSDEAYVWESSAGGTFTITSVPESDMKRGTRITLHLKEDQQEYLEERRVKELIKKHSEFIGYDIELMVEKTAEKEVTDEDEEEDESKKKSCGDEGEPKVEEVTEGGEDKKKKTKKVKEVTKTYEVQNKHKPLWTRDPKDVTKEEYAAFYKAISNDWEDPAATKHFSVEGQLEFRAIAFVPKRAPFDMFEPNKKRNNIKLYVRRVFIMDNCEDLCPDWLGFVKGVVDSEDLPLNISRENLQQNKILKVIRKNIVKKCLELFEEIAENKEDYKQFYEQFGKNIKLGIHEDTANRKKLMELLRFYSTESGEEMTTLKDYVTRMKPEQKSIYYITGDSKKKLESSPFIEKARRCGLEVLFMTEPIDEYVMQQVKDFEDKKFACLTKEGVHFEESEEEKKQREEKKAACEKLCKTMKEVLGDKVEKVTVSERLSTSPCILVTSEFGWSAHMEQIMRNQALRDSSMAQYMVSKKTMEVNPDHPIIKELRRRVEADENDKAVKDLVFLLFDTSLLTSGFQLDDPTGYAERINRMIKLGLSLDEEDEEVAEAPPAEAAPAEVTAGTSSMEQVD
Description: To evaluate in vitro the modulatory activity of CE, PR and CE caboxamides, a full-length recombinant Hsp90 from L. braziliensis (LbHsp90) was produced in E. coli BL21 DE3 harboring the pET28a_LbHsp90 coding for the C-terminal His-tagged target chaperone (genbank number: XP_001567804.1, full sequence is reported in Appendix B). Pratically, the plasmid pET28a_LbHsp90, kindly donated by professor J.C. Borges, was transformed in E. coli BL21 DE3 using the TransformAid Bacterial Transformation Kit (Thermo Fisher, Waltham, MA, USA). Subsequently, the obtained transformants were grown overnight in LB medium containing 30 μg mL^−1 kanamycin (LBkan30) and then inoculated in 1 L SB kan30 medium (Yeast extract 30 g L^−1, Tryptone 20 g L^−1, NaCl 10 g L^−1) at 37 °C and 220 rpm. When the OD600 reached 0.5–1, gene expression was induced by the addition of 2 mL of 1 M IPTG solution in water and the culture was shifted at 30 °C for 24 h. After cell harvesting by centrifugation (5000 rpm for 30 min), the cell pellet was resuspended in 20 mL of wash buffer (20 mM HEPES buffer, pH 7.0, 500 mM NaCl, 20 mM imidazole) and recombinant E. coli BL21DE3 cells were disrupted by ultrasonication. LbHsp90 was subsequently purified using a Nickel Sepharose 6 Fast Flow agarose resin (Ni-NTA) (GE Healthcare, Milan, Italy) as follows. Soluble protein fraction was separated from cell debris by centrifugation (10,000 rpm for 30min) after cell ultrasonication, and clear lysates were incubated with the Ni-NTA resin for 90 min at 4 °C under mild shaking and loaded onto a glass column (10 × 110 mm). The resin was then washed with 10mL of wash buffer and His-tagged LbHsp90 was eluted using a 3 step gradient (10 mL washing buffer containing 100, 200, and 300 mM imidazole, respectively) and dialyzed against 20 mM HEPES buffer (20 mM, pH 7.5), at 4 °C overnight. The protein content was measured using the Bio-Rad Protein Assay (Hercules, CA, USA) according to the Bradford method and the protein purity was verified by SDS-PAGE analysis (10% T, 2.6% C). It is worth noting that to avoid interferences with the assays described below, proteins were purified and conserved in HEPES buffer (20 mM, pH 7.5) in place of the standard PB-buffer. Reported data are the mean of two experiments run in duplicate.
Modulatory activity toward the ATPase cycle of LbHsp90 was determined using a Malachite Green Phosphate Assay Kit (Catalog Number MAK307, Sigma-Aldrich®, St. Louis, MO, USA). Analyses were run in a 96-well plate directly following the quantitative formation of a green complex between Malachite Green, molybdate, and free orthophosphate (Pi) produced by ATP hydrolysis catalyzed by the chaperone. Color formation from the reaction was measured on a plate reader at 620 nm. Briefly, the IC50 of CE and its derivatives were extrapolated from a set of dose-response curves obtained by calculating the amount of Pi produced by LbHsp90 in the presence of different compounds concentrations.
Reactions were run in HEPES buffer (20 mM, pH 7.5) containing 3 mM MgCl2 and 50 mM KCl in the presence of different compounds concentrations ([…]), LbHsp90 (7 μM) and ATP (25 mM) at 27 °C for 60 min. OD620 was measured 30 min after Malachite Green reactants addition.
LbHsp90 native activity was measured by conducting the reaction in the presence of just LbHsp90 and ATP and extrapolating the concentration of Pi obtained.
Three sets of control experiments, (1) ATP background hydrolysis, (2) compounds-related interferences and (3) protein-related background coloration, were run as follow: • (1) ATP (25 mM) incubated at 27 °C for 60 min • (2) Compounds (different concentrations) incubated with ATP (25 mM) at 27 °C for 60 min • (3) LbHsp90 (7 μM) at 27 °C for 60 min
The in vitro performances of CE, PR and the carboxamides 1–11 (Figure 4) as potential inhibitors of the Leishmania braziliensis Hsp90 were investigated using Sigma-Aldrich® Malachite Green Phosphate Assay Kit. […]

[4] = tested on: L. tropica promastigotes; assay: Antileishmanial activity on L. tropica promastigotes (MTT); assay type: cell-based; conditions: Leishmania tropica, 72 h, 23 °C, MTT, read-out: Leishmania Promastigotes IC50, L. tropica
Protocol: as §1, §2

[5] = tested on: THP-1; assay: Cytotoxicity on THP-1 (MTT); assay type: cell-based, human; conditions: Homo sapiens, THP-1; PMA-differentiated, 72 h, MTT; read-out: Healthy Cell Lines IC50, THP-1
Protocol: as §3, §4, §5, §6

[6] = tested on: HMEC-1; assay: Cytotoxicity on HMEC-1 (MTT); assay type: cell-based, human; conditions: Homo sapiens, HMEC-1; 72 h, MTT; read-out: Healthy Cell Lines IC50, HMEC-1
Protocol: as §3, §4, §5, §6

[7] = tested on: L. infantum amastigotes; assay: Antileishmanial activity on intramacrophage amastigotes of L. infantum; assay type: cell-based, Leishmania infantum
Protocol: Cell monolayers were then washed and incubated in the presence of test compounds for 72 h. Slides were fixed with methanol and stained with Giemsa. The percentage of infected macrophages in treated and non-treated cells was determined by light microscopy.

Which results are given for `CC1=C(O)C(=O)C=C2C1=CC=C1[C@@]2(C)CC[C@@]2(C)[C@@H]3C[C@](C)(C(=O)NCCC45CCCN4CCC5)CC[C@]3(C)CC[C@]12C` [compound 4, (2R,4aS,6aS,12bR,14aS,14bR)-N-(2-(hexahydro-1H-pyrrolizin-7a-yl)ethyl)-10-hydroxy-2,4a,6a,9,12b,14a-hexamethyl-11-oxo-1,2,3,4,4a,5,6,6a,11,12b,13,14,14a,14b-tetradecahydropicene-2-carboxamide]?
IC50 [1]: 250 ± 80 nM; IC50 [2]: 2590 ± 710 nM; IC50 [3]: 48000 ± 3000 nM; IC50 [4]: 200 ± 40 nM; IC50 [5]: 1890 ± 430 nM; IC50 [6]: 350 ± 160 nM; melting point: 235.7 to 237 °C

For `C[C@@H]1[C@H](O)[C@@H](C)/C=C/C=C/C=C/C=C/C=C/C=C/C=C/[C@H](O[C@@H]2O[C@H](C)[C@@H](O)[C@H](N)[C@@H]2O)C[C@@H]2O[C@](O)(C[C@@H](O)C[C@@H](O)[C@H](O)CC[C@@H](O)C[C@@H](O)CC(=O)O[C@H]1C)C[C@H](O)[C@H]2C(=O)O` [AMP, amphotericin B, reference compound], which IC50 [1] is on record?
The IC50 was 160 ± 50 nM.

And the IC50 ([7]; Leishmania infantum, infected THP-1 macrophages, 72 h)?
The IC50 was 180 ± 30 nM.

What about the “S.I. (selectivity index)” value ([7]; ratio IC50 on THP-1 cell line / IC50 toward L. infantum amastigotes) of the same compound?
Its value is >109.

And the IC50 [2]?
The IC50 was > 20000 nM.

What about the IC50 [4] of the same compound?
Its IC50 is 170 ± 20 nM.

What about the IC50 [5] of the same compound?
Its IC50 is > 20000 nM.

What about the IC50 [6] of the same compound?
Its IC50 is > 20000 nM.
